Results: patent US12595252B2, “Inhibitors of SARM1” (DISARM THERAPEUTICS, INC., priority 2019, dated 2026)

Target: T1, SARM1 (Homo sapiens, UniProt Q6SZW1)
T1 construct: made in house; host or cells: NRK1-HEK293T cells, transiently transfected; clarified lysate used unpurified
T1 sequence (Q6SZW1 with tags, fused parts or gaps): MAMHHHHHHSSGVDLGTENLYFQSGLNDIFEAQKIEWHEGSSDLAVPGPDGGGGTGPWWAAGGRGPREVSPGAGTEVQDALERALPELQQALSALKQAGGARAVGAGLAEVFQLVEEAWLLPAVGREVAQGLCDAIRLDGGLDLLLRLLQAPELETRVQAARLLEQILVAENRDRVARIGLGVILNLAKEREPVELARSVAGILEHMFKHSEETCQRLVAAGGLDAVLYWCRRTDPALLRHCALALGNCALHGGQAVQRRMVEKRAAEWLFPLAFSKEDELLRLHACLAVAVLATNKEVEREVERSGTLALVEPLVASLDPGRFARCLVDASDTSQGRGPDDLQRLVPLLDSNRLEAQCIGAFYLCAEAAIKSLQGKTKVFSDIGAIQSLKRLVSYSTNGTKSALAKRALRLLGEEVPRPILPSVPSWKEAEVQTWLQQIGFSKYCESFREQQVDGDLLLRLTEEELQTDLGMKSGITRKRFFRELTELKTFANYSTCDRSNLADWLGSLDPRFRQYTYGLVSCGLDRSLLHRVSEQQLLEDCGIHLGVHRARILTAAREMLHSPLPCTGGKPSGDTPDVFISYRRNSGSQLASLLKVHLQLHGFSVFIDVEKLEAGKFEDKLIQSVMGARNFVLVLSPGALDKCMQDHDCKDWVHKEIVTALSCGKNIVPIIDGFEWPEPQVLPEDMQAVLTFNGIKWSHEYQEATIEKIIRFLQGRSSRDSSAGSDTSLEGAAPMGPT
Test: ARM-SAM-TIR SARM1 IC50 assay (NADase activity, NAD+ cleavage)
Format: biochemical
Conditions: not given
Method: This Example describes an assay of ARM-SAM-TIR NADase activity and use of this assay to measure the efficacy of compounds of Formula I to block SARM1 mediated NAD+ cleavage. This assay is optimized in such a way as to characterize the efficacy of the compounds in Formula I to inhibit SARM1 activity and to calculate an IC50 value for each compound. This assay makes use of full length SARM1, which encompasses the ARM, SAM and TIR domains.
NRK1-HEK293T cells were seeded onto 150 cm^2 plates at 20×10^6 cells per plate. The next day, the cells were transfected with 15 μg ARM-SAM-TIR expression plasmid, SEQ ID NO: 1.
The cultures were supplemented with 1 mM NR at time of transfection to minimize toxicity from ARM-SAM-TIR overexpression. Forty-eight hours after transfection, cells were harvested, pelleted by centrifugation at 1,000 rpm (Sorvall ST 16R centrifuge, Thermo Fisher), and washed once with cold PBS (0.01 M phosphate buffered saline NaCl 0.138 M; KCl 0.0027 M; pH 7.4). The cells were resuspended in PBS with protease inhibitors (cOmplete™ protease inhibitor cocktail, Roche product #11873580001) and cell lysates were prepared by sonication (Branson Sonifer 450, output=3, 20 episodes of stroke). The lysates were centrifuged (12,000×g for 10 min at 4° C.) to remove cell debris and the supernatants (containing ARM-SAM-TIR protein) were stored at −80° C. for later use in the in vitro ARM-SAM-TIR NADase assay (see below). Protein concentration was determined by the Bicinchoninic (BCA) method and used to normalize lysate concentrations.
The enzymatic assay was performed in a 384-well polypropylene plate in Dulbecco's PBS buffer in a final assay volume of 20 μL. ARM-SAM-TIR lysate with a final concentration of 5 μg/mL was pre-incubated with the respective compound at 1% DMSO final assay concentration over 2 h at room temperature. The reaction was initiated by addition of 5 μM final assay concentration of NAD+ as substrate. After a 2 hr room temperature incubation, the reaction was terminated with 40 μL of stop solution of 7.5% trichloroacetic acid in acetonitrile. The NAD+ and ADPR concentrations were analyzed by a RapidFire High Throughput Mass Spectrometry System (Agilent Technologies, Santa Clara, Calif.) using an API4000 triple quadrupole mass spectrometer (AB Sciex Framingham, Mass.).

Structure (SMILES)	IC50 [µM]
CCOc1cncc(NCc2ccc(C)nc2)n1 [Example 9]	5 to 15
COc1cncc(NCc2cncnc2)n1 [Example 22]	5 to 15
COc1cncc(NCc2ccc(Cl)nc2)n1 [Example 44]	5 to 15
COc1cncc(NCc2ccc(N3CCNCC3)nc2)n1 [Example 81]	5 to 15

Same assay, conditions: ARM-SAM-TIR lysate 5 μg/mL from NRK1-HEK293T cells; 2 h pre-incubation; 5 μM NAD+; 2 hr room temperature; NAD+ and ADPR by RapidFire MS; read-out: SARM1 IC50

Structure (SMILES)	IC50 [µM]
CN(C)Cc1ccc(N2CCN(c3cncc(OCC4CCCC4)n3)CC2)nc1 [Example 2]	> 30
CCOc1cncc(NCc2ccc(N3CCN(CC)CC3)nc2)n1 [Example 3]	5 to 15
CCOc1cncc(NCc2ccc(N3CCN(CC)CC3)cc2)n1 [Example 7]	5 to 15
CCN1CCN(c2ccc(CNc3cncc(OC)n3)cn2)CC1 [Example 8]	5 to 15
CCOc1cncc(NCc2ccccc2)n1 [Example 10]	15 to 30
COc1cncc(NCc2cccnc2)n1 [Example 12]	5 to 15
CC(C)Oc1cncc(NCc2cccnc2)n1 [Example 13]	> 30
Oc1cncc(NCc2cccnc2)c1 [Example 14]	5 to 15
CCCCCOc1cncc(NCc2cccnc2)n1 [Example 15]	> 30
CN(C)c1cncc(NCc2cccnc2)n1 [Example 16]	15 to 30
COc1cncc(NS(=O)(=O)c2cccnc2)n1 [Example 17]	> 30
COc1cncc(NCc2cn[nH]c2)n1 [Example 20]	5 to 15
COc1cncc(NCc2cnn(C)c2)n1 [Example 21]	15 to 30
COc1cncc(NC(=O)c2ccc3ccccc3n2)n1 [Example 23]	5 to 15
COc1cncc(C(=O)NCc2cccnc2)n1 [Example 24]	> 30
CCNc1cncc(NCc2cccnc2)n1 [Example 25]	15 to 30
COc1cncc(NCc2cnc3ccccc3c2)n1 [Example 26]	5 to 15
COc1cncc(NCc2cncc3ccccc23)n1 [Example 27]	5 to 15
c1cncc(CNc2cncc(-n3cccn3)n2)c1 [Example 28]	5 to 15
CCN(C)c1cncc(NCc2cccnc2)n1 [Example 30]	> 30
COc1cncc(NC(C)c2cccnc2)n1 (stereo not shown) [Example 31]	15 to 30
COc1cncc(NC(C)c2ccccc2)n1 (stereo not shown) [Example 32]	15 to 30

Structure (SMILES)	IC50 [µM]
COc1cncc(NCCCc2ccccc2)n1 [Example 33]	5 to 15
COc1cncc(NCc2cccnc2)c1C [Example 34]	> 30
COc1nc(NCc2cccnc2)cnc1C [Example 35]	5 to 15
COc1cccc(CNc2cncc(OC)n2)c1 [Example 37]	5 to 15
COc1ccc(CNc2cncc(OC)n2)cc1 [Example 38]	5 to 15
COc1cncc(NCc2cccc(F)c2)n1 [Example 39]	5 to 15
COc1cncc(NCC2CCOCC2)n1 [Example 41]	> 30
COc1cncc(NCc2ccn(C)c2)n1 [Example 42]	5 to 15
COc1ncc(NCc2cccnc2)nc1OC [Example 43]	15 to 30
COc1cncc(NCC(O)c2cccc(C(F)(F)F)c2)n1 (stereo not shown) [Example 45]	5 to 15
COc1cncc(NC(=O)c2ccc3ccc(Cl)cc3n2)n1 [Example 46]	> 30
COc1cncc(NCc2ccc(NC(C)=O)cc2)n1 [Example 47]	< 5
COc1cncc(NCc2cnc3c(c2)ncn3C)n1 [Example 48]	15 to 30
COc1cncc(NCC2CCOC2)n1 (stereo not shown) [Example 50]	15 to 30
COc1cncc(NCc2nccn2C)n1 [Example 51]	> 30
COc1cncc(NCc2ccn(C)n2)n1 [Example 54]	5 to 15
COc1cncc(NCc2cn(C)cn2)n1 [Example 55]	15 to 30
COc1cncc(NCc2cc(C)no2)n1 [Example 56]	5 to 15
COc1cncc(NCc2ccoc2)n1 [Example 58]	5 to 15
COc1cncc(NCc2cccn2C)n1 [Example 59]	15 to 30
COc1cncc(NCc2cnc[nH]2)n1 [Example 61]	< 5
COc1cncc(NCc2ccc(S(N)(=O)=O)cc2)n1 [Example 63]	< 5

Continued, values first:

IC50 [µM]	Structure (SMILES)
5 to 15	COc1cncc(NCc2ccc(C(N)=O)cc2)n1 [Example 64]
5 to 15	COc1cncc(NCc2cccc(C(N)=O)c2)n1 [Example 65]
5 to 15	COc1cncc(NCc2cc[nH]c(=O)c2)n1 [Example 66]
5 to 15	COC(=O)c1ccc(CNc2cncc(OC)n2)cc1 [Example 67]
5 to 15	COc1cncc(NCc2cnco2)n1 [Example 68]
5 to 15	COc1cncc(NCc2cnc(C)s2)n1 [Example 70]
> 30	Brc1cncc(CCc2ccccc2)n1 [Example 72]
5 to 15	COc1cncc(NCc2cnn(-c3ccccc3)c2)n1 [Example 73]
> 30	Cn1cc(CNc2cncc(C#N)n2)cn1 [Example 75]
> 30	COc1cncc(NCc2ccc(C(=O)O)cc2)n1 [Example 76]
5 to 15	COc1cncc(NCc2ccc(N3CCOCC3)nc2)n1 [Example 77]
5 to 15	COc1cncc(NCc2ccc(N3CCC(O)CC3)nc2)n1 [Example 80]
5 to 15	COc1cncc(NCc2ccc(N3CCCCC3)nc2)n1 [Example 84]
5 to 15	COc1cncc(NCc2ccccc2F)n1 [Example 85]
5 to 15	COc1cncc(NCc2ccc(F)cc2)n1 [Example 86]
15 to 30	COc1cncc(NCc2cnn3cccnc23)n1 [Example 89]
15 to 30	COc1cncc(NCc2cnn3ccccc23)n1 [Example 90]
15 to 30	COc1cncc(NCc2ccc(C(F)(F)F)nc2)n1 [Example 91]
5 to 15	COc1cncc(NCc2cnn(C(C)C)c2)n1 [Example 92]

IC50 [µM]	Structure (SMILES)
5 to 15	COCCn1cc(CNc2cncc(OC)n2)cn1 [Example 93]
15 to 30	COc1cnnc(NCc2cccnc2)c1 [Example 94]
> 30	COc1cc(NCc2cccnc2)cnn1 [Example 95]
5 to 15	COc1cncc(NCc2ccc(Br)c(C)c2)n1 [Example 100]
< 5	COc1cncc(NCc2ccc(Br)cc2)n1 [Example 101]
5 to 15	COc1cncc(NCc2cnn(CCN(C)C)c2)n1 [Example 104]
< 5	COc1cncc(NCc2cnn(C3CCNCC3)c2)n1 [Example 105]
5 to 15	COc1cncc(NCc2cnn(C3CCCCC3)c2)n1 [Example 106]
5 to 15	COc1cncc(NCc2cnn(C3CCN(S(C)(=O)=O)CC3)c2)n1 [Example 107]
> 30	COc1cc(NCc2cccnc2)[nH]c(=O)c1 [Example 108]
5 to 15	COc1cncc(NCc2cccc(Br)c2)n1 [Example 109]
> 30	COc1cncc(NC(=O)c2ccccc2)c1 [Example 110]
> 30	COc1cncc(NC(=O)c2cccnc2)c1 [Example 111]
5 to 15	COc1cncc(NCc2cnc(N3CCNCC3C)nc2)n1 (stereo not shown) [Example 112]
5 to 15	COc1cncc(NCc2ccc(NCCN(C)C)nc2)n1 [Example 113]
5 to 15	COc1cncc(NCc2ccc(N3CCNC(=O)C3)nc2)n1 [Example 114]
> 30	Cn1cc(CNc2cncc(OCc3ccccc3)n2)cn1 [Example 115]
15 to 30	Cn1cc(CNc2cncc(OCC(F)F)n2)cn1 [Example 116]
